Assay results taken from a melting point compilation (Tetko et al.; mined from patent text by program, amines drawn as free bases though some values may be those of a salt).

Row | Structure (SMILES) | melting point [°C]
1 | CC1(C)CCC(C)(C)c2cc(-c3cc(-c4ccc(C=O)cc4)ccc3-c3ccccc3)ccc21 | 120 to 122
2 | NS(=O)(=O)c1cc(C(=O)OC[C@@H]2CCCN2N=O)c(NCc2ccco2)cc1Cl | 79 to 81
3 | CC(C)(C)c1cc(SCCC=O)cc(C(C)(C)C)c1O | 64 to 65
4 | O=c1[nH]c2ccccc2n1C1CCN(CC(O)CSc2ccc(F)cc2)CC1 (stereo not given) | 155 to 157
5 | COC(=O)COc1c(CCC(C)C)c(OC)cc(OC)c1C(=O)CCc1ccc(O)c(OC)c1 | 89 to 90
6 | Cc1cn(-c2ccc(N)cc2)cn1 | 122 to 125
7 | CS(=O)(=O)NCCn1c(=O)c(-c2cccs2)nc2ccccc21 | 236 to 237
8 | CN(C)C(=O)Oc1ccc2c(c1)N(Cc1ccccc1)CCC2 | 104
9 | COc1cc(CO)cc(OC)c1OCc1nc(-c2ccccc2)oc1C | 113 to 114
10 | CCc1cc(Cl)c(S(C)(=O)=O)cc1C(=O)O | 180 to 183
11 | Nc1ccc(CCC(=O)NC23CC4CC(CC(C4)C2)C3)cc1N | 151 to 152
12 | C[C@@H](NC(=O)c1sc(-c2ccc(Cl)cc2)cc1N)[C@](O)(Cn1cncn1)c1ccc(F)cc1F | 107 to 111
13 | COc1ccccc1Oc1c(Cl)ncnc1Cl | 79 to 80
14 | CN1CCN(c2ccc(C(=O)N3CCCCc4ccccc43)c(Cl)c2)CC1 | 138 to 140
15 | O=C(C=c1sc2n(c1=O)Cc1ccccc1N=2)Oc1ccccc1 | 194 to 195
16 | COc1cc2ncnc(N3CCC(CN4CCCN(C(C)C)S4(=O)=O)CC3)c2cc1OC | 158 to 161
17 | Cc1cc(C)n(-c2nccc(NC3CCCCC3)n2)n1 | 144 to 147
18 | CCOC(=O)c1cn(C2CC2)c2c(C)c(F)c(F)cc2c1=O | 220 to 221
19 | CC1CCN(c2cc3nc(C(C)(C)C)sc3cc2[N+](=O)[O-])CC1 | 116 to 120
20 | O=c1oc2ccccc2c(O)c1C1CC(c2ccc(-c3ccc(OCc4ccc(Br)cc4)cc3)cc2)Cc2ccccc21 (stereo not given) | 240
21 | COc1ccc(-c2cc(Cl)c3ccccc3n2)cc1C | 90 to 92
22 | COC(=O)c1ccc2nc(C(F)(F)F)c(S(C)(=O)=O)nc2c1 | 143 to 144
23 | CC(C)(C)OC(=O)NNC(=O)Cc1nc2cc(F)c(N3CCN(C(=O)OC(C)(C)C)CC3)cc2n1C1CC1 | 202 to 203
24 | CC(=O)NC(CC(=O)c1ccccc1)OC(C)=O (stereo not given) | 82 to 83
25 | CC(C)Cc1nc2sc3c(NCCN4CCOCC4)ncnc3c2c2c1CCC(C)(C)C2 | 190

Row | Structure (SMILES) | melting point [°C]
26 | CN(C)S(=O)(=O)n1c(N)nc2ccc(C(N)=O)cc21 | 206 to 208
27 | OC1(c2ccc(Cl)cc2)CCN(CCNC(c2ccccc2)c2ccccc2)CC1 | 114
28 | CCc1cc(C=O)ccc1N=C1SCC2(CCCC2)N1C1CCCC1 | 104 to 105
29 | CCOC(=O)N1CCC(O)(CN)CC1 | 82
30 | CC(=O)Nc1ccc(-c2c(Cl)c(CN3C(=O)CCC3=O)nc3sc4c(c23)CCNC4)cc1 | 300
31 | CCOc1cccc2c(=O)c3ccccc3sc12 | 112 to 115
32 | CC(=O)OC1CCC2(C)C(=CCC3C2CCC2(C)C(C(C)CCC(=O)O)CCC32)C1 (stereo not given) | 192 to 193
33 | O=C(O)c1ccccc1CCc1cccc(Br)c1 | 88 to 90
34 | O=C(CCN1CCCCC1)Nc1ccc2c(c1)C(=O)c1cc(NC(=O)CCN3CCCCC3)ccc1C2=O | 240
35 | CC(C)OC(=O)Cn1c(=O)n(C)c(=O)n(-c2cc(N=c3sc(=O)n4n3CCCC4)c(F)cc2Cl)c1=O | 97 to 107
36 | Fc1cccc(-c2ccc3nncn3n2)c1 | 159 to 161
37 | COC(=O)C(NS(=O)(=O)c1ccc(-c2ccc(NC(=O)c3oc4cccc(C)c4c3C)cc2)cc1)C(C)C (stereo not given) | 199 to 200
38 | CCOCCNCCOc1ccc(NC(=O)c2ccccc2NS(C)(=O)=O)cc1 | 171 to 172
39 | COc1cc2c(cc1C(F)(F)F)N(C(=O)Nc1ccc(Oc3cccnc3)nc1)CC2 | 202 to 204
40 | CC1(C)Oc2ccc([N+](=O)[O-])cc2C(n2ccccc2=O)C1(C)O (stereo not given) | 214
41 | COc1cccc2c1CCC(COC(=O)N(c1ccccc1)c1ccccc1)C2 (stereo not given) | 144 to 146
42 | O=[N+]([O-])c1ccc(F)cc1Br | 42
43 | CN1C(=O)C(S)=C(S)C1=O | 145 to 148
44 | c1cc2cc(-c3cn([C@H]4CN5CCC4CC5)nn3)ccc2o1 | 178
45 | C#CC12CC3CC(C1)CC(C#C)(C3)C2 | 46
46 | CCCCc1c(/C=C/C(=O)O)cc(OC)c2ccccc12 | 166 to 167
47 | O=C(CBr)CN1C(=O)c2ccccc2C1=O | 139 to 141
48 | CC(=O)OC1CSC(Oc2cncc(F)c2)C(OC(C)=O)C1OC(C)=O (stereo not given) | 143
49 | CC1(C)CC(O)c2cc(Br)ccc2O1 (stereo not given) | 97 to 99
50 | COc1ccc(C(=O)Nc2ccc(F)cc2F)cc1N | 166 to 168
